Test results: patent publication US20240002379A1, “ASYMMETRIC CONJUGATE COMPOUNDS” (Pheon Therapeutics Ltd., priority 2016, published 2024)
pIC50: −log10 of the molar value. Read-outs that look alike come from different tables or passages of the source.

Experiments:
[1] = test system: linear double-stranded HexARev DNA fragment; assay: DNA cleavage assay, HexARev fragment; assay type: biochemical; conditions: ligand concentration 10 μM and 100 nM (FIG. 16)
Method: The ability of a further series of compounds 13, 42, 59, 99 and the PBD dimer Talirine to cross-link DNA was determined using an assay involving a linear double-stranded HexARev fragment (FIG. 15).
The ability of 13 and of a series of compounds to cleave double-stranded DNA was investigated using a modification of the previously established DNA footprinting assay (34). Following an overnight incubation of the ligand-DNA complexes, the mixture was mixed with strand separation buffer containing 10 mM EDTA, 10 mM NaOH, 0.1% bromophenol blue, 80% formamide and incubated at 100° C. for 3 min. The mixture was then immediately cooled on ice and run on an 8% denaturing gel. […] Using the GA marker, these additional bands were identified as cleavage products produced by 13 at certain A sites of the DNA fragment.
The preparation of the TyrT DNA fragment (FIG. 8) and HexARev DNA fragment (FIG. 15) have been previously described (34). Briefly, the sequence which had been cloned into the BamHI site of pUC18 was obtained by cutting with HindIII and EcoRI. Radiolabelled DNA fragments were prepared by filling in the 3′-end of the HindIII site with [α-^32P]dATP using Klenow DNA polymerase (exo-).
The radiolabelled DNA fragment was separated from the remainder of the plasmid DNA on a 6% non-denaturing polyacrylamide gel. The gel (20 cm long, 0.3 mm thick) was run at 400 V in 1×TBE running buffer for about 1-2 h, until the bromophenol blue had run most of the way down the gel. The glass plates were separated and the position of the labelled DNA fragment was established by short (1 min) exposure to an X-ray film. The relevant band was then cut from the gel and the radiolabelled DNA eluted by adding 300 μL 10 mM Tris-HCl, pH 7.5 containing 0.1 mM EDTA and gently agitating overnight at room temperature. The eluted DNA was finally precipitated with ethanol and re-suspended in a suitable volume of 10 mM Tris-HCl, pH 7.5 containing 0.1 mM EDTA buffer so as to give at least 10 counts per second/μL on a hand-held Geiger counter. With fresh plasmid and α-^32P-dATP this process typically generated about 150 μL of radiolabelled fragment DNA. The absolute concentration of the DNA is not important, and it is typically lower than 10 nM.
Compounds such as 13 were synthesised as described above and the PBD dimer Talirine was obtained from Aurum Pharmatech LLC. Stock solution was prepared by dissolving the ligands in DMSO to give a concentration of 10 mM. From this stock solution, working solutions of the desired concentration were prepared by diluting with 10 mM Tris-HCl, pH 7.5 containing 10 mM NaCl.
Radiolabelled DNA (1.5 μL) was mixed with 1.5 μL ligand solution of various concentrations (10 μM-10 nM) and incubated overnight at 37° C.
Labelled DNA (1.5 μL) was mixed with 20 μL sterile water and 5 μL of denaturing loading solution (80% formamide containing 10 mM EDTA, 10 mM NaOH, 0.01% bromophenol blue). The sample was then incubated at 100° C. for 20 min with the micro-centrifuge tube cap open to allow evaporation.
Loading solution (4.5 μL) was added to samples from Section 2.1. The digestion products were boiled for 3 min at 100° C. and quickly cooled on ice prior to electrophoresis. Separation was performed on an 8% denaturing polyacrylamide gel (40 cm long, 0.3 mm thick) at 1500V for about 2 h until the dye reached the bottom of the gel. […]

PC3 (prostate) cell line = assay: MTT cytotoxicity assay, PC3; assay type: cell-based; conditions: MTT assay, 72 hour incubation, read-out: Cytotoxicity PC3 (nM, 72 hour)
Method: (§1) Tumor cell lines were maintained in RPMI1640 medium supplemented with 10% heat-inactivated fetal bovine serum, 2 mM L-glutamine and 1 mM sodium pyruvate. 1800 cells per well were seeded in a volume of 180 μl in a 96-well flat bottom polystyrene plate. The cells were allowed to adhere overnight at 37° C. in a CO2 incubator. Ligands were initially formulated in DMSO, and stocks stored at −80° C. They were then further formulated at lox concentration in RPMI1640 medium. 20 ul of diluted samples were added into each treatment well. On each plate, blank wells with no cells, and untreated wells containing cells, were included. Plates were then cultured at 37° C. in a CO2 incubator for 72 hrs. Cytotoxicity was evaluated using a tetrazolium salt-based assay, the MTT assay. After 72 hours, the supernatant was removed from each well and 200 μl of a sterile filtered 500 μg/ml MTT solution in water added to each well. The plates were then incubated at 37° C. in a CO2 incubator for 4 hrs. The supernatant was then removed and the formazan crystals formed solubilized by adding 150 μl of DMSO to each well. The plate was then read on a plate reader at 540 nm, and percentage cell survival calculated as follows: ((mean absorbance treated wells at concentration x−mean absorbance blank wells)[…](mean absorbance untreated wells at concentration x−mean absorbance blank wells))×100. Data were plotted as concentration in nM vs. % cell survival in Microsoft Excel, and IC50 values (concentration where cell survival is reduced by a half) were determined from the graph.

[2] = test system: FaDu (head and neck cancer) cell line; assay: MTT cytotoxicity assay, FaDu; assay type: cell-based; conditions: Homo sapiens, MTT assay, 72 hour incubation
Method: as §1

With `COc1cc2c(cc1OCCCC(=O)N1C[C@@H](CCl)c3c1cc(O)c1ccccc31)N=C[C@@H]1CCCCN1C2=O` [Compound 13, (S)-3-(4-((S)-1-(Chloromethyl)-5-hydroxy-1,2-dihydro-3H-benzo[e]indol-3-yl)-4-oxobutoxy)-2-methoxy-7,8,9,10-tetrahydrobenzo[e]-pyrido[1,2-a][1,4]diazepin-12(6aH)-one] the “cleavage of HexARev DNA fragment” value [1] was “cleave DNA”, the IC50 (PC3 (prostate) cell line) was 1.43 nM and the IC50 ([2]; read-out: Cytotoxicity FaDu (nM, 72 hour)) was 1.17 nM.

For `COc1cc2c(cc1OCc1cccc(CC(=O)N3C[C@@H](CCl)c4c3cc(O)c3ccccc43)c1)N=C[C@@H]1CCCCN1C2=O` [Compound 42, (S)-3-((3-(2-((S)-1-(Chloromethyl)-5-hydroxy-1,2-dihydro-3H-benzo[e]indol-3-yl)-2-oxoethyl)benzyl)oxy)-2-methoxy-7,8,9,10-tetrahydrobenzo[e]pyrido[1,2-a][1,4]diazepin-12(6aH)-one], the “cleavage of HexARev DNA fragment” value [1] was “cleave DNA”, the IC50 (PC3 (prostate) cell line) was 0.03 nM and the pIC50 ([2]; read-out: IC50 value in FaDu) was 11.00.
